Tests used:
[1] = Ferric reducing antioxidant power (FRAP); settings: Fe2+ equivalents
Experimental: (§1) To further elucidate how halogenation affects other properties of the flavonoids studied, their 2,2′-azino-bis-(3-ethylbenzothiazoline-6-sulfonic acid) cation (ABTS) and 1,1-diphenyl-2-picrylhydrazyl (DPPH) radical scavenging, the Folin–Ciocalteu reagent (FCR) reducing, the ferric-reducing antioxidant power (FRAP), and the anti-lipoperoxidation activities were evaluated by in vitro methods (Supplementary Information Tables S1 and S2).
(§2) The antiradical activity was evaluated by the ability to scavenge ABTS and DPPH radicals. Reducing capacity was assessed by the ability to reduce the Folin–Ciocalteu reagent (FCR) and ferric ions (FRAP). The ability to inhibit lipid peroxidation of pooled male rat microsomal liver membranes induced by tert-butyl hydroperoxide was also evaluated and the results were expressed as IC50 values.

[2] = ABTS cation radical scavenging; settings: vitamin C equivalent antioxidant capacity
Experimental: as §1, §2

DPPH radical scavenging = settings: 1,1-diphenyl-2-picrylhydrazyl radical scavenging
Experimental: as §1, §2

[3] = system: Vibrio campbellii BAA 1119 (AI-2); assay: Viability of the quorum-sensing reporter culture (resazurin assay), AI-2 strain; format: cell-based; settings: BAA1119, V. campbellii BAA 1119, resazurin assay, read-out: IC50 (concentration that halved the viability)
Description: (§3) Commercially available strains of Vibrio campbellii were used to evaluate the ability of flavonoids and their derivatives to inhibit bacterial quorum sensing. V. campbellii uses two types of autoinducing molecules for its communication—N-acyl-homoserine lactones (Autoinducer I, AI-1, strain BAA 1118) and furanosyl borate diester (Autoinducer II, AI-2, strain BAA 1119). AI-1-based communication is mainly used by Gram-negative bacteria, while AI-2-based communication is found in both Gram-negative and Gram-positive bacteria. The mutant strains of V. campbellii BA1118 and BA1119 respond only to AI-1 or AI-2, respectively, and the response to the respective AI concentration is measured as luminescence. The higher the AI concentration, the higher the luminescence signal. The ability to inhibit the communication was expressed as the selectivity index (SI), calculated as the ratio between the concentration that halved the viability (IC50) and the concentration that halved the communication (EC50) of the respective V. campbellii strains. […] The antimicrobial activity of quorum-sensing inhibitors is undesirable because it creates a selection pressure and can lead to the development of resistance.
(§4) The inhibition of bacterial extracellular communication was measured using Vibrio campbellii strains BAA-1118 and BAA-1119. The experiment was performed according to the methods of Szemerédi et al.. Briefly, 5 × 10^5 CFU/mL (colony-forming units per milliliter) were seeded in an Autoinducer Bioassay medium (NaCl 17.5 g/L, MgSO4 12.3 g/L, Casamino acids 2 g/L, 10 mL of 1 M potassium phosphate pH 7.0, 10 mL of 0.1 M L-arginine, and 10 mL of glycerol in 970 mL of deionized water) in a 96-well plate. Immediately, the tested compounds were added at the final concentration of 0.2–200 µM and luminescence was recorded for 16 h by a SpectraMax i3x microplate reader set at 30 °C, an integration time of 10,000 ms, and shaking for 60 s before measurement. […] The selectivity index was calculated as the […]. The EC50 and IC50 were calculated using GraphPad Prism software version 5.00 for Windows with a nonlinear regression curve fit.

[4] = system: multidrug-resistant S. aureus; assay: Sensitization of antibiotic-resistant bacteria (compound plus breakpoint antibiotic concentration); format: cell-based, Staphylococcus aureus; settings: for Effect on viability in combination with chloramphenicol: chloramphenicol 8 mg/L; for Effect on viability in combination with chloramphenicol / Effect on viability in combination with gentamicin: 24 h; for Effect on viability in combination with gentamicin: gentamicin 1 mg/L
Experimental: Clinically relevant antibiotics were selected for sensitization testing according to the European Committee on Antimicrobial Susceptibility Testing (EUCAST). Neither colistin and imipenem at breakpoint concentrations (according to EUCAST, […] and […]) affected the growth of the multidrug-resistant clinical strain of P. aeruginosa. Similarly, neither chloramphenicol and gentamicin at breakpoint concentrations ([…], respectively) affected the multidrug-resistant clinical strain of S. aureus. Flavonoids and their derivatives (1–40 µM) were used in combination therapy, along with the breakpoint concentration of antibiotics. After co-incubation, the minimum inhibitory concentration of flavonoids inhibiting the visible growth of bacteria was determined (Table 2).
Clinical isolates of P. aeruginosa and S. aureus were obtained from the General University Hospital in Prague (Prague, Czech Republic). P. aeruginosa was resistant to ciprofloxacin, oxacillin, ticarcillin, colistin, gentamicin, and imipenem. S. aureus was resistant to ciprofloxacin, gentamicin, erythromycin, chloramphenicol, clindamycin, oxacillin, cefotaxime, and vancomycin. Bacteria were cultivated in Mueller–Hinton broth (MH broth, Merck). The susceptibility of the bacteria was evaluated by the minimum inhibitory concentrations (MIC). The MIC of derivatives in the presence of the antibiotic cut-off concentration was determined according to ISO 20776-1: 2020. The antibiotic cut-off concentration was chosen according to the European Committee on Antimicrobial Susceptibility Testing (EUCAST, Clinical breakpoints—bacteria (ver. 11.0), 1 January 2021). The 40 µM concentration of the derivatives was chosen as the highest concentration for the tests. Cell viability was determined by measuring absorbance (A590 nm) after 24 h incubation at 37 °C, 150 rpm.

[5] = system: Vibrio campbellii BAA 1119 (AI-2); assay: microbe, parasite or virus in culture; format: cell-based; settings: for EC50: Vibrio campbellii, BAA1119, 16 h, read-out: EC50 (concentration that halved the communication); for SI (selectivity index): ratio IC50 (viability) / EC50 (communication), BAA 1119
Description: as §3, §4

[6] = system: Vibrio campbellii BAA 1118 (AI-1); assay: microbe, parasite or virus in culture; format: cell-based; settings: for EC50: Vibrio campbellii, BAA1118, 16 h, read-out: EC50 (concentration that halved the communication); for SI (selectivity index): ratio IC50 (viability) / EC50 (communication), BAA 1118
Description: as §3, §4

[7] = system: Vibrio campbellii BAA 1118 (AI-1); assay: Viability of the quorum-sensing reporter culture (resazurin assay), AI-1 strain; format: cell-based; settings: BAA1118, V. campbellii BAA 1118, resazurin assay, read-out: IC50 (concentration that halved the viability)
Description: as §3, §4

Row | Compound | FRAP [Fe2+eq] [1] | ABTS [CEAC] [2] | IC50 (DPPH radical scavenging) | IC50 [3] | Effect on viability in combination with chloramphenicol ([4]; flavonoid 40 µM) | EC50 [5] | SI (selectivity index) [5] | EC50 [6] | SI (selectivity index) [6] | IC50 [7] | Effect on viability in combination with gentamicin ([4]; flavonoid 40 µM) | Effect on viability in combination with gentamicin ([4]; flavonoid 5 µM) | Gentamicin-resistant phenotype of S. aureus (result in words) ([4]; gentamicin breakpoint concentration, compound 5 µM) | Growth in combination with chloramphenicol ([4]; chloramphenicol breakpoint concentration, compound 40 µM as stated in the text)
1 | O=C1c2c(O)c(Br)c(O)c(Br)c2O[C@H](c2ccc(O)c(O)c2)[C@H]1O [compound 8, 6,8-dibromotaxifolin] | 2.20 ± 0.03 Fe2+eq | 1.04 ± 0.05 CEAC | 4.37 µM | 109.3 ± 0.8 µM | - | 10.1 ± 0.4 µM | 10.8 ± 0.6 | 38.1 ± 2 µM | 1.5 ± 0.1 | 55.5 ± 1 µM |  |  |  | 
2 | COc1cc(C2Oc3cc(-c4oc5c(Br)c(O)cc(O)c5c(=O)c4O)ccc3OC2CO)ccc1O (centres unmarked) [compound 16, 8-bromo-2,3-dehydrosilybin AB] | 0.19 ± 0.01 Fe2+eq | 1.15 ± 0.03 CEAC | 13.4 µM | 87 ± 2.5 µM | - | 6.9 ± 0.3 µM | 12.7 ± 1.0 | > 200 µM |  | > 200 µM | - |  |  | 
3 | O=c1c(O)c(-c2ccc(O)c(O)c2)oc2cc(O)cc(O)c12 [compound 2, quercetin, reference compound] | 2.84 ± 0.02 Fe2+eq | 2.87 ± 0.23 CEAC | 2.06 µM | 10.6 ± 0.5 µM | - | 4.8 ± 0.2 µM | 2.2 ± 0.2 | 15.9 ± 0.5 µM | 1.5 ± 0.1 | 24.5 ± 0.8 µM | - |  |  | 
4 | COc1cc(C2Oc3cc(-c4oc5cc(O)cc(O)c5c(=O)c4O)ccc3OC2CO)ccc1O (centres unmarked) [compound 4, 2,3-dehydrosilybin AB, reference compound] | 0.72 ± 0.03 Fe2+eq | 1.46 ± 0.08 CEAC | 14.4 µM | 25.3 ± 1 µM | - | 10.2 ± 0.4 µM | 2.5 ± 0.2 | 59.9 ± 2 µM | 2.7 ± 0.2 | 163 ± 3.8 µM |  | reversion of resistance [5 µM] | reversed | 
5 | COc1cc([C@@H]2Oc3c(O)cc(-c4oc5cc(O)cc(O)c5c(=O)c4O)cc3[C@H]2CO)ccc1O [compound 6, 2,3-dehydrosilychristin A, reference compound] | 1.16 Fe2+eq | 2.10 CEAC | 10.8 ± 0.4 µM | 11 ± 0.4 µM |  | 11.1 ± 0.1 µM | 0.99 ± 0.05 | 22.3 ± 1 µM | 1.9 ± 0.2 | 43 ± 1.5 µM | - |  |  | 69%
6 | O=c1c(O)c(-c2ccc(O)c(O)c2)oc2c(Br)c(O)cc(O)c12 [compound 9, 8-bromoquercetin] | 2.44 ± 0.06 Fe2+eq | 2.92 ± 0.28 CEAC | 2.44 µM | 1.1 ± 0.1 µM | - | 0.4 ± 0.02 µM | 2.9 ± 0.3 | 25.6 ± 0.5 µM | 1.08 ± 0.04 | 27.8 ± 0.5 µM | - |  |  | 
